Data taken from patent publication US20060264388A1, “Method for treating liver cancer by intrahepatic administration of nemorubicin” (priority 2003, published 2006).

Assays:
[1] = test system: patients with liver cancer; experiment: Hematological toxicity - Platelets, worst CTC Grade by cycle, intrahepatic artery nemorubicin q8wk vs q6wk; format: in vivo, human
Protocol: (§1) The objective of the study was to shorten the time interval between treatment administrations from every 8 weeks (q8wk) of the protocol as reported in WO 00/15203 to every 6 weeks (q6wk). This was done in the attempt of improving the therapeutic potential of nemorubicin treatment through an increase of the dose intensity of the therapy, simultaneously safeguarding patient safety.
(§2) Overall, 13 patients were treated with the q8wk schedule (total 25 cycles administered; doses ranged from 200 to 800 mcg/m^2), and 11 patients were treated with the q6wk schedule (total 32 cycles administered; doses were 200 and 600 mcg/m^2).
The NCI-Common Tosicity Criteria grading system (CTC Grade), Version 2.0, was used to report toxicities.
A slight cumulative effect (i.e., increase in frequency but not in severity) was observed after repeated cycles for leucopenia and neutropenia (Tables 2 and 3), mainly with the q8wk schedule.

[2] = test system: liver metastases in colorectal and renal cancer patients; settings: i.v., cited from earlier work
human liver tumor = experiment: Efficacy: tumor response, intrahepatic artery nemorubicin q8wk vs q6wk; format: in vivo
Protocol: as §1, §2

[3] = 200 mcg/m^2 q6wk, All cycles, 11 evaluable cycles
[4] = 200 mcg/m^2 q6wk, Cycle 1, 5 evaluable cycles
[5] = 200 mcg/m^2 q6wk, Cycles > 1, 6 evaluable cycles
[6] = 200 mcg/m^2 q8wk, All cycles, 5 evaluable cycles
[7] = 200 mcg/m^2 q8wk, Cycle 1, 3 evaluable cycles
[8] = 200 mcg/m^2 q8wk, Cycles > 1, 2 evaluable cycles
[9] = 400 mcg/m^2 q8wk, All cycles, 4 evaluable cycles
[10] = 400 mcg/m^2 q8wk, Cycle 1, 3 evaluable cycles
[11] = 600 mcg/m^2 q6wk, All cycles, 18 evaluable cycles
[12] = 600 mcg/m^2 q6wk, Cycle 1, 6 evaluable cycles
[13] = 600 mcg/m^2 q6wk, Cycles > 1, 12 evaluable cycles
[14] = 600 mcg/m^2 q8wk, All cycles, 8 evaluable cycles
[15] = 600 mcg/m^2 q8wk, Cycle 1, 4 evaluable cycles
[16] = 600 mcg/m^2 q8wk, Cycles > 1, 4 evaluable cycles
[17] = 800 mcg/m^2 q8wk, All cycles, 3 evaluable cycles
[18] = 800 mcg/m^2 q8wk, Cycle 1, 3 evaluable cycles

## COc1cccc2c1C(=O)c1c(O)c3c(c(O)c1C2=O)C[C@@](O)(C(=O)CO)C[C@@H]3O[C@H]1C[C@H](N2CCO[C@H](OC)C2)[C@H](O)[C@H](C)O1.Cl [nemorubicin, 3′desamino-3′[2(S)methoxy-4-morpholinyl]doxorubicin-hydrochloride]
[1]; [3]
  Platelets, worst CTC Grade by cycle: All Grades (%): 10 (91%) (%)
  Platelets, worst CTC Grade by cycle: Grade 1-2 (%): 10 (91%) (%)
[1]; [4]
  Platelets, worst CTC Grade by cycle: All Grades (%): 4 (80%) (%)
  Platelets, worst CTC Grade by cycle: Grade 1-2 (%): 4 (80%) (%)
[1]; [5]
  Platelets, worst CTC Grade by cycle: All Grades (%): 6 (100%) (%)
  Platelets, worst CTC Grade by cycle: Grade 1-2 (%): 6 (100%) (%)
[1]; [6]
  Platelets, worst CTC Grade by cycle: All Grades (%): 5 (100%) (%)
  Platelets, worst CTC Grade by cycle: Grade 1-2 (%): 5 (100%) (%)
[1]; [7]
  Platelets, worst CTC Grade by cycle: All Grades (%): 3 (100%) (%)
  Platelets, worst CTC Grade by cycle: Grade 1-2 (%): 3 (100%) (%)
[1]; [8]
  Platelets, worst CTC Grade by cycle: All Grades (%): 2 (100%) (%)
  Platelets, worst CTC Grade by cycle: Grade 1-2 (%): 2 (100%) (%)
[1]; [9]
  Platelets, worst CTC Grade by cycle: All Grades (%): 1 (25%) (%)
  Platelets, worst CTC Grade by cycle: Grade 1-2 (%): 1 (25%) (%)
[1]; [10]
  Platelets, worst CTC Grade by cycle: All Grades (%): 1 (33%) (%)
  Platelets, worst CTC Grade by cycle: Grade 1-2 (%): 1 (33%) (%)
[1]; [11]
  Platelets, worst CTC Grade by cycle: All Grades (%): 17 (94%) (%)
  Platelets, worst CTC Grade by cycle: Grade 1-2 (%): 17 (94%) (%)
[1]; [12]
  Platelets, worst CTC Grade by cycle: All Grades (%): 6 (100%) (%)
  Platelets, worst CTC Grade by cycle: Grade 1-2 (%): 6 (100%) (%)
[1]; [13]
  Platelets, worst CTC Grade by cycle: All Grades (%): 11 (92%) (%)
  Platelets, worst CTC Grade by cycle: Grade 1-2 (%): 11 (92%) (%)
[1]; [14]
  Platelets, worst CTC Grade by cycle: All Grades (%): 8 (100%) (%)
  Platelets, worst CTC Grade by cycle: Grade 1-2 (%): 7 (87%) (%)
  Platelets, worst CTC Grade by cycle: Grade 3 (%): 1 (12%) (%)
[1]; [15]
  Platelets, worst CTC Grade by cycle: All Grades (%): 4 (100%) (%)
  Platelets, worst CTC Grade by cycle: Grade 1-2 (%): 4 (100%) (%)
[1]; [16]
  Platelets, worst CTC Grade by cycle: All Grades (%): 4 (100%) (%)
  Platelets, worst CTC Grade by cycle: Grade 1-2 (%): 3 (75%) (%)
  Platelets, worst CTC Grade by cycle: Grade 3 (%): 1 (25%) (%)
[1]; [17]
  Platelets, worst CTC Grade by cycle: All Grades (%): 2 (67%) (%)
  Platelets, worst CTC Grade by cycle: Grade 1-2 (%): 2 (67%) (%)
[1]; [18]
  Platelets, worst CTC Grade by cycle: All Grades (%): 2 (67%) (%)
  Platelets, worst CTC Grade by cycle: Grade 1-2 (%): 2 (67%) (%)
[1]; only one patient treated at 600 mcg/m^2 q8wk after repeated cycles
  thrombocytopenia, maximum severity (CTC Grade): Grade 3
[2]
  principle toxicities: nausea and vomiting (requiring intravenous antiemetic treatment), myelosuppression and transient elevations in transaminases
[2]; tumor shrinkage at doses of 1250 and 1500 mcg/m^2, 197 patients
  antitumor effect observed: regressions of liver metastases were repeatedly observed
Human liver tumor; 200 mcg/m^2 q6wk, one patient AJCC stage II (confirmed PR), CT scan 5 weeks after going off study
  lesion area reduction versus baseline: 70%
Human liver tumor; 200 mcg/m^2 q6wk, one patient AJCC stage II (confirmed PR), after 2 cycles
  tumor shrinkage versus baseline: 64%
Human liver tumor; 200 mcg/m^2 q8wk, one patient AJCC stage II (unconfirmed PR)
  duration of PR in the original lesion (right lobe): ≥ 12 months
Human liver tumor; 200 mcg/m^2 q8wk, one patient AJCC stage II (unconfirmed PR), after 2 cycles
  decrease in tumor area versus baseline: 85.9%
Human liver tumor; 200 mcg/m^2 q8wk, one patient AJCC stage III (confirmed PR), after 1 cycle
  shrinkage of measurable lesion versus baseline: 78.45%
Human liver tumor; 200 mcg/m^2 q8wk, one patient AJCC stage III (confirmed PR), second cycle
  lesion area reduction versus baseline: 95.3%
Human liver tumor; 600 mcg/m^2 q6wk, one patient AJCC stage III (confirmed PR), 5 cycles
  duration of PR: ≥ 8 months
Human liver tumor; 600 mcg/m^2 q6wk, one patient AJCC stage III (confirmed PR), cycle 3
  reduction of measurable lesion area versus baseline: 78.2%
Human liver tumor; 600 mcg/m^2 q6wk, one patient AJCC stage III (confirmed PR), first treatment cycle
  reduction of the measurable lesion area: 48.4%
Human liver tumor; 600 mcg/m^2 q8wk, one patient stage III (unconfirmed PR)
  duration of PR in the original lesion (right lobe): about 3 months
Human liver tumor; 600 mcg/m^2 q8wk, one patient stage III (unconfirmed PR), after one cycle
  decrease of lesion area versus baseline: 54.3%
Human liver tumor; 600 mcg/m^2 q8wk, one patient stage III (unconfirmed PR), cycle 2
  decrease in tumor area versus baseline, perfused right lobe: 68.2%
Human liver tumor; 800 mcg/m^2 q8wk, one patient AJCC stage III (unconfirmed PR), after 3 cycles
  decrease of the tumor area versus baseline: 52%
Human liver tumor; q6wk schedule
  confirmed PR out of treated patients: two confirmed PR out of 11 treated patients
Human liver tumor; q8wk schedule
  confirmed PR out of treated patients: one confirmed PR out of 13 treated patients
